Assays:
[1] = MTT assay: HT22 cell viability with compound alone; format: cell-based, mouse; details: mouse, HT22 cells; HT22 cell viability after 24 h of treatment with 5 μM compound, no Aβ
Protocol: To a clear 96-well plate (FALCON), the cultured HT-22 cells were seeded in a number of 5,000 per well 24 h prior to the assay. A solution of each test compound (5 µM, 25 µL) was added to each well. After 24 h of incubation at 37 °C, the cells were treated with a 10 µL of MTT solution (3–(4,5-dimethylthiazol-2-yl)-2,5-diphenyltetrazolium bromide, Sigma-Aldrich), incubated for 2 h at 37 °C, and were treated with 135 µL of MTT solubilising solution (10% Triton-X 100 in isopropanol with 0.1 M HCl) for 2 h at 37 °C. The % values of cell viability were determined by using the optical density (OD) values at 560 nm, and normalised by taking the vehicle control (5 µM of DMSO) as […].

[2] = Liver microsomal stability; format: in vitro ADME; details: human, liver microsomes, 1 µM compound, 0.5 mg/mL microsomes, 30 min, 37 °C; read-out: Human Liver Microsomal Stability (% remaining after 30 min)
Protocol: Liver microsomes (human, dog, rat, and mouse; 0.5 mg/mL) were incubated with 1 µM of each test compound in the presence of potassium phosphate buffer (PPB) for 5 min at 37 °C. A solution of the NADPH regeneration system (#44332000, Oriental Yeast Co., Japan) was added to begin metabolic reactions of liver microsomes. The resulting mixtures were incubated for 30 min at 37 °C, and the reaction was terminated by the addition of a cold MeCN solution containing an internal standard (chlorpropamide). The mixture was separated by centrifugation (14,000 rpm for 5 min at 4 °C), and the supernatant was analysed by LC-MS/MS (Shimadzu Nexera XR system and TSQ vantage; Thermo Scientific).

CYP2D6 = molecular target: T1, CYP2D6 (Homo sapiens, UniProt P10635); test: CYP inhibition assay (Vivid CYP450 screening kit); format: in vitro ADME; details: 10 μM compound
T1 construct: purchased Invitrogen, Madison, WI, USA
Protocol: (§1) Human CYP450 (CYP1A2, 2D6, 2C9, 2C19, and 3A4) activities were determined by using the Vivid® CYP450 screening kit (Invitrogen, Madison, WI, USA) in a clear 96-well plate. Five positive controls were used as 10 mM solutions in MeCN for five different CYP450 enzymes: CYP1A2 (α-naphthoflavone), CYP2D6 (quinidine), CYP2C9 (sulfaphenazole), CYP2C19 (lansoprazole), and CYP3A4 (ketoconazole). Each sample (test compounds, positive inhibition controls, and solvent controls) was added into each well with the Master Pre-Mix [CYP450 BACULOSOMES® Reagent (recombinant human CYP450 isozyme and rabbit NADPHP450 reductase) and Regeneration System (3.3 mM glucose-6-phosphate and 0.3 U/ml glucose-6-phosphate dehydrogenase in 100 mM potassium phosphate, pH 8.0)]. The mixture was incubated for 5 min at 37 °C, and the Vivid® CYP substrates and 0.1 mM NADP^+ buffer were added to initiate the CYP450 enzyme reaction. The % remaining activities of CYP450 were measured after 20 min by using a fluorescent plate reader (Flexstation® 3, Molecular Devices, USA).

CYP2C19 = molecular target: T2, CYP2C19 (Homo sapiens, UniProt P33261); test: CYP inhibition assay (Vivid CYP450 screening kit); format: in vitro ADME; details: 10 μM compound
T2 construct: purchased Invitrogen, Madison, WI, USA
Protocol: as §1

CYP3A4 = molecular target: T3, CYP3A4 (Homo sapiens, UniProt P08684); test: CYP inhibition assay (Vivid CYP450 screening kit); format: in vitro ADME; details: 10 μM compound
T3 construct: purchased Invitrogen, Madison, WI, USA
Protocol: as §1

CYP2C9 = molecular target: T4, CYP2C9 (Homo sapiens, UniProt P11712); test: CYP inhibition assay (Vivid CYP450 screening kit); format: in vitro ADME; details: 10 μM compound
T4 construct: purchased Invitrogen, Madison, WI, USA
Protocol: as §1

CYP1A2 = molecular target: T5, CYP1A2 (Homo sapiens, UniProt P05177); test: CYP inhibition assay (Vivid CYP450 screening kit); format: in vitro ADME; details: 10 μM compound
T5 construct: purchased Invitrogen, Madison, WI, USA
T5 sequence (P05177 2-516 limits assumed): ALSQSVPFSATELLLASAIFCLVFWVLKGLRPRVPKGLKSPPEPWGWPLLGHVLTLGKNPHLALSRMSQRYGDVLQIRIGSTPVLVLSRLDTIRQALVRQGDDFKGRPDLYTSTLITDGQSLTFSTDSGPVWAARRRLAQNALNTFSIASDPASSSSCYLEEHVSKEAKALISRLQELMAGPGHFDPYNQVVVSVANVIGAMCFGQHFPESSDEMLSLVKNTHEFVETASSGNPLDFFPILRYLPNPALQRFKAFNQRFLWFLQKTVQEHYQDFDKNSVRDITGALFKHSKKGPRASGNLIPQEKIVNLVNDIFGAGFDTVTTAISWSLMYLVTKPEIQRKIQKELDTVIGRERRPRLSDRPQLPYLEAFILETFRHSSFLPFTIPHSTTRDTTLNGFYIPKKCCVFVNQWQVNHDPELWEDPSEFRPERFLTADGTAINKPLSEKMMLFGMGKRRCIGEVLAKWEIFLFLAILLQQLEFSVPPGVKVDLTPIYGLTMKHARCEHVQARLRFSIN
Protocol: as §1

hERG channel = molecular target: T6, hERG channel (Homo sapiens, UniProt Q12809); test: hERG inhibition assay (automated patch-clamp, CHO-K1 Tet-On hERG cells); format: cell-based; details: patch-clamp, ± SD
T6 construct: host or cells: CHO-K1 Tet-On hERG cells
Protocol: For automated patch-clamp NPC-16 Patchliner (Nanion Technologies, München, Germany) recordings, CHO-K1 Tet-On hERG cells (IonGate Biosciences GmbH, Frankfurt, Germany) were plated into 100-mm cell culture dishes. Whole-cell currents were recorded with the intracellular solution containing: 50 mM KCl, 60 mM KF, 10 mM NaCl, 2 mM MgCl2, 20 mM EGTA and 10 mM HEPES (pH 7.2), and with the extracellular solution containing: 140 mM NaCl, 4 mM KCl, 2 mM CaCl2, 1 mM MgCl2, 5 mM Glucose and 10 HEPES (pH 7.4). To assist stable seal formations, the seal enhancer containing: 80 mM NaCl, 3 mM KCl, 35 mM CaCl2, 10 mM MgCl2 and 10 mM HEPES (pH 7.4) was used only at the seal formation step. Prior to the whole-cell recordings, the external seal enhancing solution was exchanged to the extracellular solution described above. hERG channel currents were recorded using the parallel EPC-10 patch-clamp amplifiers (HEKA Elektronik, Lambrecht/Pfalz, Germany), and low-pass filtered (10 kHz) with a 4-pole Bessel filter. Cell suspension and patch solutions were automatically added onto the four recording wells in the microfabricated disposable chip (NPC-16 Chip, Nanion Technologies, München, Germany). To obtain the inhibitory constants, hERG tail currents were evoked by repolarizing steps to −50 mV for 500 ms preceded by a 500-ms depolarisation potential of +20 mV at a holding potential of −80 mV with a 20-s sweep interval. Whole-cell currents were acquired and digitised at 5 kHz using Patchmaster (HEKA Elektronik, Lambrecht/Pfalz, Germany). The extracellular solution was exchanged to the extracellular solution containing each blocker via four pipette tips of NPC-16 Patchliner using a 4-fold volume of solution (40 µL) with a speed of 4 µL/s, and the exchanged blocker solution was applied for 100–200 s to the patch-clamped cells until blocker binding had reached equilibrium by monitoring hERG tail currents. Whole-cell recordings were analysed using the Patchmaster/Fitmaster (HEKA Elektronik, Lambrecht/Pfalz, Germany), IGOR Pro (WaveMetrics Inc., Portland, OR, USA), and the GraphPad Prism 4.0 (GraphPad Software, Inc., La Jolla, CA, USA) software.

T3 sequence (P08684 2-503 limits assumed): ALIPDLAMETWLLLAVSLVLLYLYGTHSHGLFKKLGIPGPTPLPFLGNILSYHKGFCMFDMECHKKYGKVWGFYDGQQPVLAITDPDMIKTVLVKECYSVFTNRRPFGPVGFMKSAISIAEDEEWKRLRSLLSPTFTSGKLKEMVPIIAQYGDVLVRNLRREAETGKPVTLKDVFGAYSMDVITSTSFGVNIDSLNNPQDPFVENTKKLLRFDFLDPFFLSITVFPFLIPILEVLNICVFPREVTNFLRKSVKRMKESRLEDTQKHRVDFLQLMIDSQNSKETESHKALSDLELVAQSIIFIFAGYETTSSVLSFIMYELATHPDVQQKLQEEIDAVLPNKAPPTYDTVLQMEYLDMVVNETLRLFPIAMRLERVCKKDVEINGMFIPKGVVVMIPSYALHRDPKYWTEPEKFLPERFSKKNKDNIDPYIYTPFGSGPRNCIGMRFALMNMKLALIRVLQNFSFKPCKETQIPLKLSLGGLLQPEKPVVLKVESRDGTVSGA
T6 sequence (Q12809 whole entry): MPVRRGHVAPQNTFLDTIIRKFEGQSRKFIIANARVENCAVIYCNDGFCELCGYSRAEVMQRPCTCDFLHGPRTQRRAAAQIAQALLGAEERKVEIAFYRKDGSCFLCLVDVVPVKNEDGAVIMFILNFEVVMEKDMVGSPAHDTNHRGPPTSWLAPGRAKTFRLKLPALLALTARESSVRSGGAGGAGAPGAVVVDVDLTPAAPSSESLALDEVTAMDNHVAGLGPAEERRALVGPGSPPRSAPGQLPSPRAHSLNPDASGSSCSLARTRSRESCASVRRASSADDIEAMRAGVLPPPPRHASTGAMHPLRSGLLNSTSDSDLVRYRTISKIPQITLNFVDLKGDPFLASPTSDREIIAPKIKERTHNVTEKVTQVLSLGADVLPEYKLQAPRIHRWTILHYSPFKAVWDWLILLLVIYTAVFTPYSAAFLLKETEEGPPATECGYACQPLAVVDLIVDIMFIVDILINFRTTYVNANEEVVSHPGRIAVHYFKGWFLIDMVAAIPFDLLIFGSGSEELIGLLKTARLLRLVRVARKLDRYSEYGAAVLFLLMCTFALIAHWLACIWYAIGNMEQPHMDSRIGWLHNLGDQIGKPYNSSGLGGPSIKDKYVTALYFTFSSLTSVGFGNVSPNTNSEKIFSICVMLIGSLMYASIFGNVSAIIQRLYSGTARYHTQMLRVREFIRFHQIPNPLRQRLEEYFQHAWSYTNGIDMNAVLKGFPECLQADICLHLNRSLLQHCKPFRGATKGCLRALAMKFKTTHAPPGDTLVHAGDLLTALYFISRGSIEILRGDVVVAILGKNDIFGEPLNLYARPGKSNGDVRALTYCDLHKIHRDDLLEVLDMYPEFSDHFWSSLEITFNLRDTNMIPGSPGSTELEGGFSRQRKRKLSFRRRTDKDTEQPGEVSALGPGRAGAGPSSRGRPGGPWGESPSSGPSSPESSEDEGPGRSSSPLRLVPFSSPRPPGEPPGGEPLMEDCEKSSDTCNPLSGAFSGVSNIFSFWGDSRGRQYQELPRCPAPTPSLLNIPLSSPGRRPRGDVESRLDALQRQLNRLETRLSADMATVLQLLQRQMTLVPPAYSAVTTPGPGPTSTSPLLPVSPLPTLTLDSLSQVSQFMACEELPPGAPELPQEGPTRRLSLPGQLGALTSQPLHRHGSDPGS
T2 sequence (P33261 whole entry): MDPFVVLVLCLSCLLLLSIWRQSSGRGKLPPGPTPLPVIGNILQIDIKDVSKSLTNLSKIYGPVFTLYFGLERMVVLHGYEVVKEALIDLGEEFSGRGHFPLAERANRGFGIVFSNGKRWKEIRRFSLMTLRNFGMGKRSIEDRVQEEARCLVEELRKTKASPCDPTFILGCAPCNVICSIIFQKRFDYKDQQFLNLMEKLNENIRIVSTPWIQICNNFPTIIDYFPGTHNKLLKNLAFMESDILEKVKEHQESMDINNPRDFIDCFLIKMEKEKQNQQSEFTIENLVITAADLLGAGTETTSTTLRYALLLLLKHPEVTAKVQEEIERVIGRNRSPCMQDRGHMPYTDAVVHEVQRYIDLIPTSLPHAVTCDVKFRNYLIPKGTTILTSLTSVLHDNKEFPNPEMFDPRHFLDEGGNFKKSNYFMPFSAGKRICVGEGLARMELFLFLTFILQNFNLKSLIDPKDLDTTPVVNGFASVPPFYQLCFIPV
T1 sequence (P10635 whole entry): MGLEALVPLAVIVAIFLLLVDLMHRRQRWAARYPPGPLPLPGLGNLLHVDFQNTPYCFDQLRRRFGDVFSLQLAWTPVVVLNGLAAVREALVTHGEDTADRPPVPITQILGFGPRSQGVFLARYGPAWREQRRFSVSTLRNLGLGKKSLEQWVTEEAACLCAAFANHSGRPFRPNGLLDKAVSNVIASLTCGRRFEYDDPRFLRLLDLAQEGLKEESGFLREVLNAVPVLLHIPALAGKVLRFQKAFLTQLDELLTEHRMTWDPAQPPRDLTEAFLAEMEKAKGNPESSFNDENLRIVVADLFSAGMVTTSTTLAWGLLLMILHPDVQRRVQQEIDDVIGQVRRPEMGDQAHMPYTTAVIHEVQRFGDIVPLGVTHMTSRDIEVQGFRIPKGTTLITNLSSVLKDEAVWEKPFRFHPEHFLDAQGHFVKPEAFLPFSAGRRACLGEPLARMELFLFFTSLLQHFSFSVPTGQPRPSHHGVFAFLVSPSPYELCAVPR
T4 sequence (P11712 whole entry): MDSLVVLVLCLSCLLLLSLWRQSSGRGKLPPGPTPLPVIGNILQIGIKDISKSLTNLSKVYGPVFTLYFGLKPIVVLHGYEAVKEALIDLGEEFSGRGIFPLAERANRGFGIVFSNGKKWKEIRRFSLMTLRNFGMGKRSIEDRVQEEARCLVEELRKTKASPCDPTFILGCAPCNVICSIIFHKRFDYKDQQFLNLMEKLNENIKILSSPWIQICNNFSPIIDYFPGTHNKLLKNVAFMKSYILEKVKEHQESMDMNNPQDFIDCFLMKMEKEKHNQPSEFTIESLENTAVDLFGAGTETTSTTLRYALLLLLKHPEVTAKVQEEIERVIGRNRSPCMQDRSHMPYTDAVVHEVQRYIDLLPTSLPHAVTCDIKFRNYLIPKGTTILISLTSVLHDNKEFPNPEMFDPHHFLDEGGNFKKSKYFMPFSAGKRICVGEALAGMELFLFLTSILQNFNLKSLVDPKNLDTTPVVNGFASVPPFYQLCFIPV

Row | Compound | viability at 24 h, 5 µM [1] | remaining at 0.5 h, 1 µM [2] | CYP450 (% remaining Activity at 10 μM) CYP2D6 (CYP2D6) | CYP450 (% remaining Activity at 10 μM) CYP2C19 (CYP2C19) | CYP450 (% remaining Activity at 10 μM) CYP3A4 (CYP3A4) | CYP450 (% remaining Activity at 10 μM) CYP2C9 (CYP2C9) | CYP450 (% remaining Activity at 10 μM) CYP1A2 (CYP1A2) | IC50 (hERG channel)
1 | CCn1c(SCC(=O)Nc2ccc(OC)c(OC)c2)nc2sc3c(c2c1=O)CCN(C(C)=O)C3 [Compound 58] | 99% | – | – | – | – | – | – | –
2 | CCCCN(CCCC)C(=O)CSc1nc2sc3c(c2c(=O)n1-c1ccc(OCC)cc1)CCN(C)C3 [Compound 57] | 110% | – | – | – | – | – | – | –
3 | COc1ccc(-n2c(SCC(=O)Nc3ccc(F)c(F)c3)nc3sc4c(c3c2=O)CCN(C(C)=O)C4)cc1 [Compound 27] | 92% | – | – | – | – | – | – | –
4 | CCOc1ccc(-n2c(SCC(=O)N3CCN(Cc4ccccc4)CC3)nc3sc4c(c3c2=O)CCN(C(C)=O)C4)cc1 [Compound 45] | 113% | 4.3% | 107.0% | 23.2% | 89.1% | 14.9% | 110.5% | –
5 | CCCn1c(SCC(=O)Nc2ccc(OC)c(OC)c2)nc2sc3c(c2c1=O)CCN(C(C)=O)C3 [Compound 59] | 112% | – | – | – | – | – | – | –
6 | CCOc1ccc(-n2c(SCC(=O)NCc3ccc(Cl)cc3)nc3sc4c(c3c2=O)CCN(C)C4)cc1 [Compound 52] | 80% | 67.6% | 36.6% | 16.1% | 42.6% | 86.9% | 117.2% | 8.6 ± 0.83 µM
7 | CCCCn1c(SCC(=O)Nc2ccc(OC)c(OC)c2)nc2sc3c(c2c1=O)CCN(C(C)=O)C3 [Compound 61] | 97% | – | – | – | – | – | – | –
8 | CCOc1ccc(-n2c(SCC(=O)NCCN3CCCCC3)nc3sc4c(c3c2=O)CCN(C(C)=O)C4)cc1 [Compound 28] | 71% | – | – | – | – | – | – | –
9 | CCCN(CCC)C(=O)CSc1nc2sc3c(c2c(=O)n1-c1ccc(OCC)cc1)CCN(C)C3 [Compound 56] | 108% | – | 89.2% | 30.5% | 30.9% | 44.5% | 71.9% | 12.9 ± 3.03 µM
10 | CCOc1ccc(-n2c(SCC(=O)N3CCC(Cc4ccccc4)CC3)nc3sc4c(c3c2=O)CCN(C(C)=O)C4)cc1 [Compound 47] | 94% | 2.2% | 64.0% | 15.0% | 66.2% | 15.6% | 81.5% | –
11 | CCCCNC(=O)CSc1nc2sc3c(c2c(=O)n1-c1ccc(OCC)cc1)CCN(C(C)=O)C3 [Compound 43] | 79% | – | – | – | – | – | – | –
12 | CCOc1ccc(-n2c(SCC(=O)Nc3ccc(OC)c(OC)c3)nc3sc4c(c3c2=O)CCN(C)C4)cc1 [Compound 48] | 106% | 63.4% | 57.8% | 20.3% | 20.7% | 33.7% | 35.8% | –
13 | COc1ccc(NC(=O)CSc2nc3sc4c(c3c(=O)n2C(C)C)CCN(C(C)=O)C4)cc1OC [Compound 62] | 94% | – | – | – | – | – | – | –
14 | CCOc1ccc(-n2c(SCC(=O)N(CC)CC)nc3sc4c(c3c2=O)CCN(C(C)=O)C4)cc1 [Compound 38] | 77% | – | – | – | – | – | – | –
15 | CCCCN(CCCC)C(=O)CSc1nc2sc3c(c2c(=O)n1-c1ccc(OCC)cc1)CCN(C(C)=O)C3 [Compound 40] | 107% | – | 79.8% | 57.4% | 38.9% | 33.6% | 103.0% | 2.43 ± 0.48 µM
16 | CCOc1ccc(-n2c(SCC(=O)N3CCC(c4ccccc4)CC3)nc3sc4c(c3c2=O)CCN(C(C)=O)C4)cc1 [Compound 46] | 86% | 6.6% | 72.3% | 16.5% | 81.2% | 6.7% | 84.4% | –
17 | CCCN(CCC)C(=O)CSc1nc2sc3c(c2c(=O)n1-c1ccc(OCC)cc1)CCN(C(C)=O)C3 [Compound 39] | 99% | – | 95.1% | 64.0% | 51.8% | 61.0% | 143.1% | 5.87 ± 1.18 µM
18 | CCOc1ccc(-n2c(SCC(=O)NCc3ccc(C)cc3)nc3sc4c(c3c2=O)CCN(C)C4)cc1 [Compound 54] | 107% | – | – | – | – | – | – | –
19 | CCOc1ccc(-n2c(SCC(=O)Nc3ccc(Cl)cc3)nc3sc4c(c3c2=O)CCN(C)C4)cc1 [Compound 53] | 89% | – | – | – | – | – | – | –
20 | COc1ccc(NC(=O)CSc2nc3sc4c(c3c(=O)n2CC(C)C)CCN(C(C)=O)C4)cc1OC [Compound 60] | 96% | – | – | – | – | – | – | –
